Data from PubChem BioAssay (NCI).
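1) Cells in 96-well plates. 2) Compound, 48 h, 5 concentrations. 3) Linear interpolation between surrounding doses. 4) Unreached endpoint = highest concentration. At the GI50, growth is halved. TGI marks complete inhibition of growth.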

How the values were obtained:
Assay in all cases: growth of human tumour cells (NCI), 48 h
HCT-116 colon = test system: HCT-116 colon
DU-145 prostate = test system: DU-145 prostate
SF-539 CNS = test system: SF-539 CNS
HCT-15 colon = test system: HCT-15 colon
T-47D breast = test system: T-47D breast
HS 578T breast = test system: HS 578T breast
IGROV1 ovarian = test system: IGROV1 ovarian
PC-3 prostate = test system: PC-3 prostate
MDA-MB-435 = test system: MDA-MB-435
SK-OV-3 ovarian = test system: SK-OV-3 ovarian
M14 melanoma = test system: M14 melanoma
KM12 colon = test system: KM12 colon
U251 CNS = test system: U251 CNS
NCI-H522 lung = test system: NCI-H522 lung
SW-620 colon = test system: SW-620 colon
BT-549 breast = test system: BT-549 breast
OVCAR-5 ovarian = test system: OVCAR-5 ovarian
HCC-2998 colon = test system: HCC-2998 colon
NCI-H460 lung = test system: NCI-H460 lung
A549 NSCLC = test system: A549 NSCLC
OVCAR-8 ovarian = test system: OVCAR-8 ovarian
ACHN renal = test system: ACHN renal
SN12C renal = test system: SN12C renal
NCI-H23 lung = test system: NCI-H23 lung
SNB-19 CNS = test system: SNB-19 CNS
SK-MEL-2 melanoma = test system: SK-MEL-2 melanoma
TK-10 renal = test system: TK-10 renal
RXF 393 renal = test system: RXF 393 renal

In the case of CC(=O)c1ccc(N(/C=C/C(=O)C(F)(F)F)CC(=O)c2ccc(Cl)c(Cl)c2)cc1, the GI50 (HCT-116 colon) is reported as 13.4 µM, the TGI (HCT-116 colon) is reported as 26.2 µM and the GI50 (DU-145 prostate) is reported as 19.2 µM. It also gave a TGI (DU-145 prostate) of 36.1 µM, a GI50 (SF-539 CNS) of 20.5 µM and a TGI (SF-539 CNS) of 36.6 µM. The GI50 (HCT-15 colon) was 13.4 µM, the TGI (HCT-15 colon) was 29.2 µM and the GI50 (T-47D breast) was 26.4 µM. For the same molecule, the TGI (T-47D breast) was 75.4 µM, the GI50 (HS 578T breast) was 20.3 µM and the TGI (HS 578T breast) was 45.2 µM. For the same molecule, the GI50 (IGROV1 ovarian) was 13.9 µM, the TGI (IGROV1 ovarian) was 28.4 µM and the GI50 (PC-3 prostate) was 11.5 µM. The TGI (PC-3 prostate) was 30.2 µM, the GI50 (MDA-MB-435) was 3.43 µM and the TGI (MDA-MB-435) was 11.7 µM. For the same molecule, the GI50 (SK-OV-3 ovarian) was 18.1 µM, the TGI (SK-OV-3 ovarian) was 38.9 µM and the GI50 (M14 melanoma) was 13.3 µM. The TGI (M14 melanoma) was 26.7 µM, the GI50 (KM12 colon) was 12.8 µM and the TGI (KM12 colon) was 27.1 µM. The GI50 (U251 CNS) was 14 µM, the TGI (U251 CNS) was 27.7 µM and the GI50 (NCI-H522 lung) was 13.2 µM. For the same molecule, the TGI (NCI-H522 lung) was 27.7 µM, the GI50 (SW-620 colon) was 18.3 µM and the TGI (SW-620 colon) was 34.8 µM. It also gave a GI50 (BT-549 breast) of 19.9 µM, a TGI (BT-549 breast) of 38.9 µM and a GI50 (OVCAR-5 ovarian) of 18.6 µM. It also gave a TGI (OVCAR-5 ovarian) of 35.9 µM, a GI50 (HCC-2998 colon) of 18.5 µM and a TGI (HCC-2998 colon) of 34.9 µM. The GI50 (NCI-H460 lung) was 15.6 µM, the TGI (NCI-H460 lung) was greater than 100 µM and the GI50 (A549 NSCLC) was 14.2 µM. It also gave a TGI (A549 NSCLC) of 33.5 µM, a GI50 (OVCAR-8 ovarian) of 16.1 µM and a TGI (OVCAR-8 ovarian) of 31.4 µM. For the same molecule, the GI50 (ACHN renal) was 14.4 µM, the TGI (ACHN renal) was 27.7 µM and the GI50 (SN12C renal) was 15 µM. For the same molecule, the TGI (SN12C renal) was 28.8 µM, the GI50 (NCI-H23 lung) was 18 µM and the TGI (NCI-H23 lung) was 35.6 µM. For the same molecule, the GI50 (SNB-19 CNS) was 19.3 µM, the TGI (SNB-19 CNS) was 41.6 µM and the GI50 (SK-MEL-2 melanoma) was 15.3 µM. The TGI (SK-MEL-2 melanoma) was 30.4 µM, the GI50 (TK-10 renal) was 15.8 µM and the TGI (TK-10 renal) was 32.8 µM. It also gave a GI50 (RXF 393 renal) of 13.9 µM and a TGI (RXF 393 renal) of 30.4 µM.
